Legend:
Human Carboanhydrase I = Human Carboanhydrase I (Homo sapiens, UniProt P00915); test: Inhibition of carboanhydrase I (CO2 hydration); format: biochemical; conditions: read-out: CAI IC50
Method: Carboanhydrases catalyze the CO2 hydration.
Test preparation: A constant CO2 stream is directed by a buffer that was mixed with carboanhydrase I. The time that is required to reduce the pH within defined limits is a measuring parameter. This parameter reflects the formation of H2CO3 in the medium. IC50 inhibiting values are determined by test substances being pipetted into the test preparation.

uterus weight = test: Estrogenic activity in ovariectomized rats, oral administration (uterus weight); format: in vivo, Wistar rats; conditions: for Uterus Weight UVD (Uterus Doubling Dose vs. OVX): treatment days 1-3, sacrifice day 4
Method: (§1) Table 1 illustrates the estrogenic activity in the case of oral administration and liver toxicity (hepatic effects) based on data of selected compounds in in-vivo tests with rats.
(§2) Adult Wistar rats are ovariectomized and are brought into the test after a 14-day waiting period. The animals are then treated for over three days (days 1-3) and then sacrificed (day 4). Then, the organ weights are determined and estrogen-modulated factors of hepatic secretion in serum are determined, which in the rat are the increase of angiotensinogen and the drop in total cholesterol and HDL cholesterol.

[1] = test system: angiotensinogen, total cholesterol and HDL cholesterol in serum; test: Hepatic effects in ovariectomized rats (estrogen-modulated factors of hepatic secretion in serum); conditions: for Angiotensin 1 ED50 (dose which produces an increase by 50% vs. OVX control) / HDL Cholesterol ED50 (dose which produces a drop by 50% vs. OVX control) / Total Cholesterol ED50 (dose which produces a drop by 50% vs. OVX control): oral, days 1-3, serum
Method: as §1, §2

erythrocytes = test: Binding to erythrocytes: displacement of 14C-estradiol sulfamate; parameters: species or system Human; conditions: for RBA to Erythrocytes: human blood, relative to estradiol-3-sulfamate = 100; for bonds to erythrocytes (in words): m-substituted compounds
Method: The SO2—NH2 group of the substances according to the invention can result in a concentration in erythrocytes by binding to carboanhydrases. The displacement of estradiol-3-sulfamate from the erythrocyte bond by test substances is measured.
Test preparation: Human blood is mixed with a mixture that consists of ^14C-labeled and unlabeled estradiol sulfamate. The erythrocytes are saturated at the selected working point, and the distribution in plasma/erythrocytes is 40:60. A second blood sample is mixed with a mixture that consists of ^14C-labeled estradiol sulfamate and unlabeled test substance. The relative binding affinity is calculated from the proportion of ^14C-labeled estradiol sulfamate in plasma: higher proportion=strong displacement of ^14C-estradiol sulfamate from the erythrocytes by the test substance=high binding affinity.

uterus and vagina weight = test: Interaction of estrogens with progesterone in uterus and vagina of ovariectomized guinea pigs; format: in vivo; conditions: OVX guinea pigs, 7 days s.c., with 3.0 mg progesterone per animal per day
Description: Adult guinea pigs were ovariectomized and treated for 2 weeks after this operation over 7 days with estradiol or estriol over a large dose range. […] The effects of this treatment on the genital organs was raised on the 8th test day.

[2] = female, Wistar, rat, in vivo, 3 days
[3] = rats, oral, compared with compound 10 or compound 1

Chain of Human Carboanhydrase I (P00915 whole entry): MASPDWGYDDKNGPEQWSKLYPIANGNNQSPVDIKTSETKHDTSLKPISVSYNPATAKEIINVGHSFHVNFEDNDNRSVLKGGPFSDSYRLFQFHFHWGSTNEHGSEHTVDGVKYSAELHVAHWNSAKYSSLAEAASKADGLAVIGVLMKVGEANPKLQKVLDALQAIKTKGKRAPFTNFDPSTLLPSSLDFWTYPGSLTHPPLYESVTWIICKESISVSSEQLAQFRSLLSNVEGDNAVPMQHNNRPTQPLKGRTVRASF

rel. hep. Akt. (relative hepatic activity vs. uterotropic activity), HDL Cholesterol ([1]; OVX rats, HDL cholesterol ED50 relative to UVD) | rel. hep. Akt. (relative hepatic activity vs. uterotropic activity), Angiotensin 1 ([1]; OVX rats, angiotensin 1 ED50 relative to UVD) | rel. hep. Akt. (relative hepatic activity vs. uterotropic activity), Total Cholesterol ([1]; OVX rats, total cholesterol ED50 relative to UVD) | Structure (SMILES) | IC50 (Human Carboanhydrase I) [nM] | Uterus Weight UVD (Uterus Doubling Dose vs. OVX) (uterus weight; OVX rats, oral) [μg/T/T] | Angiotensin 1 ED50 (dose which produces an increase by 50% vs. OVX control) ([1]; OVX rats) [μg/T/T] | HDL Cholesterol ED50 (dose which produces a drop by 50% vs. OVX control) ([1]; OVX rats) [μg/T/T] | Total Cholesterol ED50 (dose which produces a drop by 50% vs. OVX control) ([1]; OVX rats) [μg/T/T] | rel. hep. Akt. (relative hepatic activity vs. uterotropic activity), Angiotensin 1 [1, 2] | rel. hep. Akt. (relative hepatic activity vs. uterotropic activity), HDL Cholesterol [1, 2] | rel. hep. Akt. (relative hepatic activity vs. uterotropic activity), Total Cholesterol [1, 2] | RBA to Erythrocytes (erythrocytes) | estrogenic activity in the case of oral administration (uterus weight; [3]) | oral bioavailability (uterus weight; [3]) | bonds to erythrocytes (in words) (erythrocytes) | increase of the uterus weight (doubling) (uterus weight; OVX rats, estriol even at very high dosages) | uterotropic actions in combination with progesterone (uterus and vagina weight; uterus) | increase in weight of the vagina in combination with progesterone (uterus and vagina weight; vagina)
– | – | – | C[C@]12CC[C@@H]3c4ccc(O)cc4CC[C@H]3[C@@H]1C[C@@H](O)[C@@H]2OC(=O)c1ccc(S(N)(=O)=O)cc1 [Compound 1, 3,16α-Dihydroxyestra-1,3,5(10)-trien-17β-yl 4′-sulfamoylbenzoate] | 200 | 162.6 | 17.4 | 45.9 | 39.9 | 0.12 | 0.28 | 0.25 | – | – | – | – | – | – | –
– | – | – | C[C@]12CC[C@@H]3c4ccc(O)cc4CC[C@H]3[C@@H]1C[C@@H](OC(=O)c1ccc(S(N)(=O)=O)cc1)[C@@H]2O [Compound 4, 3,17β-Dihydroxyestra-1,3,5(10)-trien-16α-yl 4′-sulfamoylbenzoate] | – | – | – | – | – | – | – | – | 2.6 | – | – | – | – | – | –
– | – | – | C[C@]12CC[C@@H]3c4ccc(O)cc4CC[C@H]3[C@@H]1C[C@@H](O)[C@@H]2OC(=O)c1cccc(S(N)(=O)=O)c1 [Compound 7, 3,16α-Dihydroxyestra-1,3,5(10)-trien-17β-yl 3′-sulfamoylbenzoate] | 600 | 137.5 | 8.9 | 6.0 | 4.8 | 0.06 | 0.04 | 0.03 | 0.5 | higher estrogenic activity | higher | only very weak bonds were detected | – | – | –
– | – | – | C[C@]12CC[C@@H]3c4ccc(O)cc4CC[C@H]3[C@@H]1C[C@@H](OC(=O)c1cccc(S(N)(=O)=O)c1)[C@@H]2O [Compound 10, 3,17β-Dihydroxyestra-1,3,5(10)-trien-16α-yl 3′-sulfamoylbenzoate] | 450 | 378.2 | 5.7 | 18.6 | 10.7 | 0.015 | 0.49 | 0.028 | 0.4 | – | – | only very weak bonds were detected | – | – | –
– | – | – | C[C@]12CC[C@@H]3c4ccc(OS(N)(=O)=O)cc4CC[C@H]3[C@@H]1CC[C@@H]2O [Estradiol-3-sulfamate, reference compound] | 157 ± 10.6 | – | – | – | – | – | – | – | 100 | – | – | – | – | – | –
<0.1 | <0.008 | <0.08 | C[C@]12CC[C@@H]3c4ccc(O)cc4CC[C@H]3[C@@H]1C[C@@H](O)[C@@H]2O [Estriol] | – | >1000 | 7.6 | 110.7 | 79 | – | – | – | – | – | – | – | did not bring about a doubling of the uterus weight | clearly enhanced | not enhanced or is not enhanced to the same extent

Source: patent US20050277625A1, “Estriol and estetrol prodrugs” (priority 2004, published 2005)
